Tests used:
[1] = biological target: Recombinant human c-Cbl (aa 47-435) (Homo sapiens (Human), UniProt P22681); experiment: c-Cbl Biochemical Assay (TR-FRET)
Summary of the method: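 TR-FRET binding of UBE2D2-Ub-Bodipy (100 nM) to biotinylated c-Cbl (aa 47-435, 6 nM) via Streptavidin-Tb, measured after c-Cbl activation by Src-Zap70 with 0.5 mM ATP (60-90 min RT, 30 min compound preincubation). Ten-point half-log dilutions, 1% DMSO; IC50 by 4-parameter fit of normalized inhibition.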

[2] = biological target: Recombinant human Cbl-b (aa 36-427) (Homo sapiens (Human), UniProt Q13191); experiment: Cbl-b Biochemical Assay (TR-FRET); details: read-out: TR-FRET hCbl-b IC50
Summary of the method: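 IC50 from 4-parameter fit of % inhibition (DMSO max, reference-inhibitor min), duplicate ten-point series. Compound preincubated with 6 nM Cbl-b, then Src-Zap70 (1-2.5 nM)/0.5 mM ATP reaction 60 min RT; EDTA quench with labelled UBE2D2-Ub and streptavidin-terbium, 60 min, HTRF at 520 nm.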

Chain of Recombinant human Cbl-b (aa 36-427) (Q13191 36-427): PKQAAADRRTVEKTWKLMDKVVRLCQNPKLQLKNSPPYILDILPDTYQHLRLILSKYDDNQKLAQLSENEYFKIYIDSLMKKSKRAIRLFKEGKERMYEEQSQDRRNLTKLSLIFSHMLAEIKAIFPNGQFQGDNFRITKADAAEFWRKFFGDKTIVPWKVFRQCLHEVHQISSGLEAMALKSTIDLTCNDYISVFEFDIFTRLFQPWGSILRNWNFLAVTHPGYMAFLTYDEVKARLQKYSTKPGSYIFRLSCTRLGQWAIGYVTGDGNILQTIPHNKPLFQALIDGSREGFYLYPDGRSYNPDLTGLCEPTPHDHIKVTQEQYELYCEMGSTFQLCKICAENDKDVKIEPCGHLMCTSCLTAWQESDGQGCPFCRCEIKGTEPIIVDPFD
Chain of Recombinant human c-Cbl (aa 47-435) (P22681 47-435): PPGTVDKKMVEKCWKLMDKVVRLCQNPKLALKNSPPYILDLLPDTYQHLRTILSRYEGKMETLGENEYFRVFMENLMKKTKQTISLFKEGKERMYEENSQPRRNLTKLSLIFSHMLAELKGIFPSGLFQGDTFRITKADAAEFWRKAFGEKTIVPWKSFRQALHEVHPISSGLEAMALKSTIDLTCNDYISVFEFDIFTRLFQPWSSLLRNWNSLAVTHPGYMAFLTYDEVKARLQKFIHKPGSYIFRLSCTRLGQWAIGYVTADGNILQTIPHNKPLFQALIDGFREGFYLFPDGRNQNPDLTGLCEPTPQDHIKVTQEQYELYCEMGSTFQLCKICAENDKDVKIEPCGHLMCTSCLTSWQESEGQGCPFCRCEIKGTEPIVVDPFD

Row | SMILES | IC50 [1] | IC50 [2]
1 | Cn1cnnc1-c1cc(C#N)ccc1-c1cc(C2CC2)nc(N2Cc3c(F)cc(CNCC4(F)CCC4)cc3C2=O)c1 [AKK-1, 4-{2-Cyclopropyl-6-[4-fluoro-6-({[(1-fluorocyclobutyl)methyl]amino}methyl)-1-oxo-3H-isoindol-2-yl]pyridin-4-yl}-3-(4-methyl-1,2,4-triazol-3-yl)benzonitrile] | ≤ 200 nM | ≤ 200 nM
2 | COc1cc2c(cc1CO)C(=O)N(c1cc(-c3ccc(C#N)cc3-c3nncn3C)cc(C3CC3)n1)C2 [AKL-2, 4-{2-Cyclopropyl-6-[6-(hydroxymethyl)-5-methoxy-1-oxo-3H-isoindol-2-yl]pyridin-4-yl}-3-(4-methyl-1,2,4-triazol-3-yl)benzonitrile] | ≤ 200 nM | ≤ 200 nM
3 | COc1cc2c(cc1CNCC1CCC1)C(=O)N(c1cc(-c3ccc(C#N)cc3-c3nncn3C)cc(C3CC3)n1)C2 [AKM-2, 4-[2-(6-{[(Cyclobutylmethyl)amino]methyl}-5-methoxy-1-oxo-3H-isoindol-2-yl)-6-cyclopropylpyridin-4-yl]-3-(4-methyl-1,2,4-triazol-3-yl)benzonitrile] | 1000 to 10000 nM | 1000 to 10000 nM
4 | Cn1cnnc1-c1cc(C#N)ccc1-c1cc(C2CC2)nc(N2Cc3cc(Cl)c(CO)cc3C2=O)c1 [AKN-12, 4-{2-[5-Chloro-6-(hydroxymethyl)-1-oxo-3H-isoindol-2-yl]-6-cyclopropylpyridin-4-yl}-3-(4-methyl-1,2,4-triazol-3-yl)benzonitrile] | ≤ 200 nM | ≤ 200 nM
5 | Cn1cnnc1-c1cc(C#N)ccc1-c1cc(C2CC2)nc(N2Cc3cc(Cl)c(CNCC4CCCC4)cc3C2=O)c1 [AKO-2, 4-(2-(5-Chloro-6-(((cyclopentylmethyl)amino)methyl)-1-oxoisoindolin-2-yl)-6-cyclopropylpyridin-4-yl)-3-(4-methyl-4H-1,2,4-triazol-3-yl)benzonitrile] | ≤ 200 nM | ≤ 200 nM
6 | CN(Cc1ccc2c(c1)C(=O)N(c1cc(-c3ccc(C#N)cc3-c3nncn3C)cc(C3CC3)n1)C2)CC1(O)CCC1 [AKP-1, 4-{2-Cyclopropyl-6-[6-({[(1-hydroxycyclobutyl)methyl](methyl)amino}methyl)-1-oxo-3H-isoindol-2-yl]pyridin-4-yl}-3-(4-methyl-1,2,4-triazol-3-yl)benzonitrile] | ≤ 200 nM | ≤ 200 nM
7 | Cn1cnnc1-c1cc(C#N)ccc1-c1cc(C2CC2)nc(N2Cc3c(F)cc(CN4CC5CC5C4)cc3C2=O)c1 (stereo not drawn) [AKQ-2, 4-[2-(6-{3-Azabicyclo[3.1.0]hexan-3-ylmethyl}-4-fluoro-1-oxo-3H-isoindol-2-yl)-6-cyclopropylpyridin-4-yl]-3-(4-methyl-1,2,4-triazol-3-yl)benzonitrile] | ≤ 200 nM | ≤ 200 nM
8 | Cn1cnnc1-c1cc(C#N)ccc1-c1cc(C2CC2)nc(N2Cc3c(F)cc(CN4C[C@@H]5C[C@H]4CO5)cc3C2=O)c1 [AKR-3, 4-(2-Cyclopropyl-6-{4-fluoro-6-[(1S,4S)-2-oxa-5-azabicyclo[2.2.1]heptan-5-ylmethyl]-1-oxo-3H-isoindol-2-yl}pyridin-4-yl)-3-(4-methyl-1,2,4-triazol-3-yl)benzonitrile] | ≤ 200 nM | ≤ 200 nM
9 | Cn1cnnc1-c1cc(C#N)ccc1-c1cc(C2CC2)nc(N2Cc3c(F)cc(CNCC4CCC4)cc3C2=O)c1 [AKS-1, 4-[2-(6-{1[(Cyclobutylmethyl)amino]methyl}-4-fluoro-1-oxo-3H-isoindol-2-yl)-6-cyclopropylpyridin-4-yl]-3-(4-methyl-1,2,4-triazol-3-yl)benzonitrile] | ≤ 200 nM | ≤ 200 nM
10 | CN(Cc1cc(F)c2c(c1)C(=O)N(c1cc(-c3ccc(C#N)cc3-c3nncn3C)cc(C3CC3)n1)C2)CC1CCC1 [AKT-1, 4-[2-(6-{[(Cyclobutylmethyl)(methyl)amino]methyl}-4-fluoro-1-oxo-3H-isoindol-2-yl)-6-cyclopropylpyridin-4-yl]-3-(4-methyl-1,2,4-triazol-3-yl)benzonitrile] | ≤ 200 nM | ≤ 200 nM
11 | CCC1(NCc2cc3c(c(C(F)(F)F)c2)CN(c2cc(-c4ccc(C#N)cc4-c4nncn4C)cc(C4CC4)n2)C3=O)CC1 [AKU-2, 4-[2-Cyclopropyl-6-(6-{1[(1-ethylcyclopropyl)amino]methyl}-1-oxo-4-(trifluoromethyl)-3H-isoindol-2-yl)pyridin-4-yl]-3-(4-methyl-1,2,4-triazol-3-yl)benzonitrile] | ≤ 200 nM | ≤ 200 nM
12 | CO[C@H](C)CNCc1cc(F)c2c(c1)C(=O)N(c1cc(-c3ccc(C#N)cc3-c3nncn3C)cc(C3CC3)n1)C2 [AKV-1, 4-{2-Cyclopropyl-6-[4-fluoro-6-({[(2R)-2-methoxypropyl]amino}methyl)-1-oxo-3H-isoindol-2-yl]pyridin-4-yl}-3-(4-methyl-1,2,4-triazol-3-yl)benzonitrile] | ≤ 200 nM | ≤ 200 nM
13 | CO[C@@H](C)CNCc1cc(F)c2c(c1)C(=O)N(c1cc(-c3ccc(C#N)cc3-c3nncn3C)cc(C3CC3)n1)C2 [AKW-1, 4-{2-Cyclopropyl-6-[4-fluoro-6-({[(2S)-2-methoxypropyl]amino}methyl)-1-oxo-3H-isoindol-2-yl]pyridin-4-yl}-3-(4-methyl-1,2,4-triazol-3-yl)benzonitrile] | ≤ 200 nM | ≤ 200 nM
14 | CCOc1cc(-c2ccc(C#N)cc2-c2nncn2C)cc(N2Cc3ccc(CO)cc3C2=O)n1 [AKX-1, 4-{2-Ethoxy-6-[6-(hydroxymethyl)-1-oxo-3H-isoindol-2-yl]pyridin-4-yl}-3-(4-methyl-1,2,4-triazol-3-yl)benzonitrile] | 200 to 1000 nM | ≤ 200 nM
15 | C[C@H]1CCCN(Cc2cc(F)c3c(c2)C(=O)N(c2cc(-c4ccc(C#N)cc4-c4nncn4C)cc(C4CC4)n2)C3)C1 [AKY-1, 4-[2-Cyclopropyl-6-(4-fluoro-6-{[(3S)-3-methylpiperidin-1-yl]methyl}-1-oxo-3H-isoindol-2-yl)pyridin-4-yl]-3-(4-methyl-1,2,4-triazol-3-yl)benzonitrile] | ≤ 200 nM | ≤ 200 nM
16 | Cn1cnnc1-c1cc(C#N)ccc1-c1cc(C2CC2)nc(N2Cc3c(F)cc(CNCC4(F)CC4)cc3C2=O)c1 [AKZ-2, 4-{2-Cyclopropyl-6-[4-fluoro-6-({[(1-fluorocyclopropyl)methyl]amino}methyl)-1-oxo-3H-isoindol-2-yl]pyridin-4-yl}-3-(4-methyl-1,2,4-triazol-3-yl)benzonitrile] | ≤ 200 nM | ≤ 200 nM
17 | Cn1cnnc1-c1cc(C#N)ccc1-c1cc(C2CC2)nc(N2Cc3c(Br)cc(CO)cc3C2=O)c1 [ALA-5, 4-{2-[4-Bromo-6-(hydroxymethyl)-1-oxo-3H-isoindol-2-yl]-6-cyclopropylpyridin-4-yl}-3-(4-methyl-1,2,4-triazol-3-yl)benzonitrile] | ≤ 200 nM | ≤ 200 nM
18 | COCCNCc1cc(Br)c2c(c1)C(=O)N(c1cc(-c3ccc(C#N)cc3-c3nncn3C)cc(C3CC3)n1)C2 [ALB-2, 4-[2-(4-Bromo-6-{[(2-methoxyethyl)amino]methyl}-1-oxo-3H-isoindol-2-yl)-6-cyclopropylpyridin-4-yl]-3-(4-methyl-1,2,4-triazol-3-yl)benzonitrile] | ≤ 200 nM | ≤ 200 nM
19 | CO[C@H](C)[C@@H](C)NCc1cc(F)c2c(c1)C(=O)N(c1cc(-c3ccc(C#N)cc3-c3nncn3C)cc(C3CC3)n1)C2 [ALC-2, 4-{2-Cyclopropyl-6-[4-fluoro-6-({[(2R,3R)-3-methoxybutan-2-yl]amino}methyl)-1-oxo-3H-isoindol-2-yl]pyridin-4-yl}-3-(4-methyl-1,2,4-triazol-3-yl)benzonitrile] | ≤ 200 nM | ≤ 200 nM
20 | Cn1cnnc1-c1cc(C#N)ccc1-c1cc(C2CC2)nc(N2Cc3ccc(CNCC(C)(C)F)cc3C2=O)c1 [ALD-2, 4-[2-Cyclopropyl-6-(6-{[(2-fluoro-2-methylpropyl)amino]methyl}-1-oxo-3H-isoindol-2-yl)pyridin-4-yl]-3-(4-methyl-1,2,4-triazol-3-yl)benzonitrile] | ≤ 200 nM | ≤ 200 nM
21 | Cn1cnnc1-c1cc(C#N)ccc1-c1cc(C2CC2)nc(N2Cc3cnc(CO)cc3C2=O)c1 [ALE-7, 4-{2-Cyclopropyl-6-[6-(hydroxymethyl)-1-oxo-3H-pyrrolo[3,4-c]pyridin-2-yl]pyridin-4-yl}-3-(4-methyl-1,2,4-triazol-3-yl)benzonitrile] | ≤ 200 nM | 200 to 1000 nM
22 | Cn1cnnc1-c1cc(C#N)ccc1-c1cc(C2CC2)nc(N2Cc3cnc(CNCC4CCC4)cc3C2=O)c1 [ALF-2, 4-[2-(6-{[(Cyclobutylmethyl)amino]methyl}-1-oxo-3H-pyrrolo[3,4-c]pyridin-2-yl)-6-cyclopropylpyridin-4-yl]-3-(4-methyl-1,2,4-triazol-3-yl)benzonitrile] | ≤ 200 nM | ≤ 200 nM
23 | COC[C@@H](C)NCc1cc(F)c2c(c1)C(=O)N(c1cc(-c3ccc(C#N)cc3-c3nncn3C)cc(C3CC3)c1)C2 [ALG-3, 3′-cyclopropyl-5′-[4-fluoro-6-({[(2R)-1-methoxypropan-2-yl]amino}methyl)-1-oxo-3H-isoindol-2-yl]-2-(4-methyl-1,2,4-triazol-3-yl)-[1,1′-biphenyl]-4-carbonitrile] | ≤ 200 nM | ≤ 200 nM
24 | COC[C@H](C)NCc1cc(F)c2c(c1)C(=O)N(c1cc(-c3ccc(C#N)cc3-c3nncn3C)cc(C3CC3)c1)C2 [ALH-1, 3′-Cyclopropyl-5′-[4-fluoro-6-({[(2S)-1-methoxypropan-2-yl]amino}methyl)-1-oxo-3H-isoindol-2-yl]-2-(4-methyl-1,2,4-triazol-3-yl)-[1,1′-biphenyl]-4-carbonitrile] | ≤ 200 nM | ≤ 200 nM

Reference: patent US12325697B2 (Nimbus Clio, Inc., priority 2021, dated 2025)
